Source: the NIST ThermoML archive (doi:10.1016/j.fluid.2010.02.022)
Numbers after ± are expanded uncertainties.

Settings: 101 kPa, Liquid, Pendant drop method

Row | SMILES | interfacial tension (293 K) | interfacial tension (298 K) | interfacial tension (303 K) | interfacial tension (308 K) | interfacial tension (313 K) | interfacial tension (318 K) | interfacial tension (323 K)
1 | CCCCCC[n+]1ccn(C)c1.O=S(=O)([N-]S(=O)(=O)C(F)(F)F)C(F)(F)F + CCCCCCCCCC | 6.59 ± 0.11 mN/m | 6.47 ± 0.11 mN/m | 6.36 ± 0.11 mN/m | 6.24 ± 0.11 mN/m | 6.11 ± 0.11 mN/m |  | 
2 | CCCCn1cc[n+](C)c1.O=S(=O)([O-])C(F)(F)F [1-butyl-3-methylimidazolium trifluoromethanesulfonate] + CCCCCCCC | 9.96 ± 0.12 mN/m | 9.88 ± 0.12 mN/m | 9.79 ± 0.12 mN/m | 9.7 ± 0.12 mN/m | 9.59 ± 0.12 mN/m |  | 
3 | CCn1cc[n+](C)c1.O=S(=O)([N-]S(=O)(=O)C(F)(F)F)C(F)(F)F + CCCCCCCCCC | 12.87 ± 0.14 mN/m | 12.75 ± 0.14 mN/m | 12.64 ± 0.14 mN/m | 12.52 ± 0.14 mN/m | 12.41 ± 0.14 mN/m |  | 
4 | CCCC[n+]1ccn(C)c1.O=S(=O)([N-]S(=O)(=O)C(F)(F)F)C(F)(F)F + CCCCCCCC | 8.78 ± 0.11 mN/m | 8.6 ± 0.11 mN/m | 8.43 ± 0.11 mN/m | 8.25 ± 0.11 mN/m | 8.1 ± 0.11 mN/m |  | 
5 | CCCCn1cc[n+](C)c1.O=S(=O)([O-])C(F)(F)F [1-butyl-3-methylimidazolium trifluoromethanesulfonate] + CCCCCC | 9.07 ± 0.19 mN/m | 8.9 ± 0.19 mN/m | 8.74 ± 0.18 mN/m | 8.58 ± 0.18 mN/m | 8.43 ± 0.18 mN/m |  | 
6 | CCCCn1cc[n+](C)c1.O=C([O-])C(F)(F)F [1-butyl-3-methylimidazolium trifluoroacetate] + CCCCCCCC | 9.38 ± 0.12 mN/m | 9.29 ± 0.12 mN/m | 9.21 ± 0.12 mN/m | 9.11 ± 0.12 mN/m | 8.98 ± 0.11 mN/m |  | 
7 | CCn1cc[n+](C)c1.O=S(=O)([N-]S(=O)(=O)C(F)(F)F)C(F)(F)F + CCCCCCCC | 12.23 ± 0.13 mN/m | 12.1 ± 0.13 mN/m | 11.84 ± 0.12 mN/m | 11.7 ± 0.12 mN/m | 11.43 ± 0.12 mN/m |  | 
8 | CCn1cc[n+](C)c1.O=S(=O)([N-]S(=O)(=O)C(F)(F)F)C(F)(F)F + CCCCCC | 11.36 ± 0.22 mN/m | 11.23 ± 0.22 mN/m | 11.12 ± 0.22 mN/m | 10.98 ± 0.22 mN/m | 10.82 ± 0.21 mN/m |  | 
9 | CCCC[n+]1ccn(C)c1.O=S(=O)([N-]S(=O)(=O)C(F)(F)F)C(F)(F)F + CCCCCC | 7.78 ± 0.17 mN/m | 7.64 ± 0.17 mN/m | 7.5 ± 0.17 mN/m | 7.37 ± 0.16 mN/m | 7.24 ± 0.16 mN/m |  | 
10 | CCCCCCCCCCn1cc[n+](C)c1.O=S(=O)([N-]S(=O)(=O)C(F)(F)F)C(F)(F)F + O | 17.71 ± 0.14 mN/m | 17.41 ± 0.14 mN/m | 17.09 ± 0.14 mN/m | 16.75 ± 0.13 mN/m | 16.41 ± 0.13 mN/m | 16.05 ± 0.13 mN/m | 15.66 ± 0.13 mN/m
11 | CCCCCCCCn1cc[n+](C)c1.O=S(=O)([N-]S(=O)(=O)C(F)(F)F)C(F)(F)F + CCCCCCCCCC | 3.98 ± 0.1 mN/m | 3.88 ± 0.1 mN/m | 3.76 ± 0.1 mN/m | 3.63 ± 0.1 mN/m | 3.51 ± 0.1 mN/m |  | 
12 | CCCCCC[n+]1ccn(C)c1.O=S(=O)([N-]S(=O)(=O)C(F)(F)F)C(F)(F)F + O | 15.39 ± 0.13 mN/m | 14.82 ± 0.13 mN/m | 14.49 ± 0.13 mN/m | 14.17 ± 0.13 mN/m | 14.01 ± 0.12 mN/m | 13.78 ± 0.12 mN/m | 13.45 ± 0.12 mN/m
13 | CCCC[n+]1ccn(C)c1.O=S(=O)([N-]S(=O)(=O)C(F)(F)F)C(F)(F)F + O | 13.69 ± 0.12 mN/m | 13.2 ± 0.12 mN/m | 12.57 ± 0.12 mN/m | 12.31 ± 0.12 mN/m | 11.62 ± 0.12 mN/m | 11.4 ± 0.12 mN/m | 11.07 ± 0.12 mN/m
14 | CCCC[n+]1ccn(C)c1.O=S(=O)([N-]S(=O)(=O)C(F)(F)F)C(F)(F)F + CCCCCCCCCC | 9.43 ± 0.12 mN/m | 9.33 ± 0.12 mN/m | 9.21 ± 0.12 mN/m | 9.1 ± 0.12 mN/m | 8.99 ± 0.12 mN/m |  | 
15 | CCCCCCCCn1cc[n+](C)c1.O=S(=O)([N-]S(=O)(=O)C(F)(F)F)C(F)(F)F + CCCCCCCC | 3.76 ± 0.1 mN/m | 3.69 ± 0.1 mN/m | 3.6 ± 0.1 mN/m | 3.49 ± 0.1 mN/m | 3.38 ± 0.1 mN/m |  | 
16 | CCCCn1cc[n+](C)c1.O=C([O-])C(F)(F)F [1-butyl-3-methylimidazolium trifluoroacetate] + CCCCCC | 8.74 ± 0.18 mN/m | 8.58 ± 0.18 mN/m | 8.43 ± 0.18 mN/m | 8.29 ± 0.18 mN/m | 8.16 ± 0.17 mN/m |  | 
17 | Cn1cc[n+](C)c1.O=S(=O)([N-]S(=O)(=O)C(F)(F)F)C(F)(F)F [1,3-dimethylimidazolium bis((trifluoromethyl)sulfonyl)amide] + O |  | 8.05 ± 0.11 mN/m | 7.83 ± 0.11 mN/m | 7.49 ± 0.11 mN/m | 7.14 ± 0.11 mN/m | 6.82 ± 0.11 mN/m | 6.52 ± 0.11 mN/m
18 | CCCCn1cc[n+](C)c1.O=S(=O)([O-])C(F)(F)F [1-butyl-3-methylimidazolium trifluoromethanesulfonate] + CCCCCCCCCC | 10.79 ± 0.13 mN/m | 10.67 ± 0.13 mN/m | 10.56 ± 0.13 mN/m | 10.44 ± 0.13 mN/m | 10.31 ± 0.13 mN/m |  | 
19 | CCCCCC[n+]1ccn(C)c1.O=S(=O)([N-]S(=O)(=O)C(F)(F)F)C(F)(F)F + CCCCCCCC | 5.79 ± 0.11 mN/m | 5.66 ± 0.11 mN/m | 5.5 ± 0.11 mN/m | 5.36 ± 0.11 mN/m | 5.24 ± 0.11 mN/m |  | 
20 | CCCCCCCCn1cc[n+](C)c1.O=S(=O)([N-]S(=O)(=O)C(F)(F)F)C(F)(F)F + O | 16.47 ± 0.14 mN/m | 15.79 ± 0.13 mN/m | 15.67 ± 0.13 mN/m | 15.37 ± 0.13 mN/m | 15.06 ± 0.13 mN/m | 14.61 ± 0.13 mN/m | 14.44 ± 0.13 mN/m
21 | CCCCn1cc[n+](C)c1.O=C([O-])C(F)(F)F [1-butyl-3-methylimidazolium trifluoroacetate] + CCCCCCCCCC | 10.52 ± 0.13 mN/m | 10.41 ± 0.13 mN/m | 10.29 ± 0.13 mN/m | 10.16 ± 0.13 mN/m | 10.04 ± 0.13 mN/m |  | 
22 | CCn1cc[n+](C)c1.O=S(=O)([N-]S(=O)(=O)C(F)(F)F)C(F)(F)F + O | 10.04 ± 0.11 mN/m | 9.85 ± 0.11 mN/m | 9.51 ± 0.11 mN/m | 9.29 ± 0.11 mN/m | 9.05 ± 0.11 mN/m | 8.79 ± 0.11 mN/m | 8.61 ± 0.11 mN/m
23 | CCCCCC[n+]1ccn(C)c1.O=S(=O)([N-]S(=O)(=O)C(F)(F)F)C(F)(F)F + CCCCCC | 5.19 ± 0.14 mN/m | 5.1 ± 0.13 mN/m | 4.99 ± 0.13 mN/m | 4.88 ± 0.13 mN/m | 4.79 ± 0.13 mN/m |  | 
24 | CCCCCCCCn1cc[n+](C)c1.O=S(=O)([N-]S(=O)(=O)C(F)(F)F)C(F)(F)F + CCCCCC | 3.12 ± 0.11 mN/m | 3.07 ± 0.11 mN/m | 3.02 ± 0.11 mN/m | 2.95 ± 0.11 mN/m | 2.88 ± 0.11 mN/m |  | 
